pIC50: −log10 of the molar value. Like-named read-outs stand apart in the source and are kept apart here.
Experiments:
recombinant human CK2 = target: T1, recombinant human CK2 (Homo sapiens, UniProt P68400); experiment: CK2 assay (cell-free, 33P-ATP filter plate); assay type: biochemical
T1 construct: purchased Upstate
Method: Modulatory activity of compounds described herein was assessed in vitro in cell-free CK2 assays by the following method.
Test compounds in aqueous solution were added at a volume of 10 microliters, to a reaction mixture comprising 10 microliters Assay Dilution Buffer (ADB; 20 mM MOPS, pH 7.2, 25 mM beta-glycerolphosphate, 5 mM EGTA, 1 mM sodium orthovanadate and 1 mM dithiothreitol), 10 microliters of substrate peptide (RRRDDDSDDD, dissolved in ADB at a concentration of 1 mM), 10 microliters of recombinant human CK2 (25 ng dissolved in ADB; Upstate). Reactions were initiated by the addition of 10 microliters of ATP Solution (90% 75 mM MgCl2, 75 micromolar ATP dissolved in ADB; 10% [γ-^33P]ATP (stock 1 mCi/100 μl; 3000 Ci/mmol (Perkin Elmer) and maintained for 10 minutes at 30° C. The reactions were quenched with 100 microliters of 0.75% phosphoric acid, then transferred to and filtered through a phosphocellulose filter plate (Millipore). After washing each well 5 times with 0.75% phosphoric acid, the plate was dried under vacuum for 5 min and, following the addition of 15 ul of scintilation fluid to each well, the residual radioactivity was measured using a Wallac luminescence counter.

MDAMB453 = experiment: Alamar Blue (AB) cell proliferation assay, MDAMB453; assay type: cell-based
Method: (§1) A representative cell-proliferation assay protocol using Alamar Blue dye (stored at 4° C., use 20 ul per well) is described hereafter.
(§2) c. Plate 4,000-5,000 cells per well in 100 μl of medium and seed into a 96-well plate according to the following plate layout. Add cell culture medium only to wells B10 to B12. Wells B1 to B9 have cells but no compound added.
(§3) d. Add 100 μl of 2× drug dilution to each well in a concentration shown in the plate layout above. At the same time, add 100 μl of media into the control wells (wells B10 to B12). Total volume is 200 μl/well.
(§4) e. Incubate four (4) days at 37° C., 5% CO2 in a humidified incubator.
(§5) f. Add 20 μl Alamar Blue reagent to each well.
(§6) g. Incubate for four (4) hours at 37° C., 5% CO2 in a humidified incubator.
(§7) h. Record fluorescence at an excitation wavelength of 544 nm and emission wavelength of 590 nm using a microplate reader.
(§8) In the assays, cells are cultured with a test compound for approximately four days, the dye is then added to the cells and fluorescence of […] dye is detected after approximately four hours. Different types of cells can be utilized in the assays (e.g., HCT-116 human colorectal carcinoma cells, PC-3 human prostatic cancer cells, MDA-MB231 human breast cancer cells, K-562 human chronic myelogenous leukemia (CML) cells, MiaPaca human pancreatic carcinoma cells, MV-4 human acute myeloid leukemia cells, and BxPC3 human pancreatic adenocarcinoma cells).

[1] = system: BxPC3 human pancreatic adenocarcinoma cells; experiment: Alamar Blue (AB) cell proliferation assay, BxPC3; assay type: cell-based
Method: as §1, §2, §3, §4, §5, §6, §7, §8

recombinant human Pim-2 = recombinant human Pim-2 (Homo sapiens, UniProt Q9P1W9); experiment: PIM-2 assay (33P-ATP filter plate); assay type: biochemical; settings: 2.5 uM compound
Chain of recombinant human Pim-2 (Q9P1W9 whole entry): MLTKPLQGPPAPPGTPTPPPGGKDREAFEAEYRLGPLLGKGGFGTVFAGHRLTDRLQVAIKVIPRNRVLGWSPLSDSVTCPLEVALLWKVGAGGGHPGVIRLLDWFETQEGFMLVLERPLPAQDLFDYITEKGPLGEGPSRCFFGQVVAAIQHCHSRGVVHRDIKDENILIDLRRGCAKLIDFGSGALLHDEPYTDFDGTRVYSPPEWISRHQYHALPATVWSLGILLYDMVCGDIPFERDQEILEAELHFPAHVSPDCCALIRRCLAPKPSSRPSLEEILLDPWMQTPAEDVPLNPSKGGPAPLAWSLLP
Method: Test compounds dissolved and diluted in DMSO (2 μl) were added to a reaction mixture comprising 10 μl of 5× Reaction Buffer (40 mM MOPS pH 7.0, 5 mM EDTA), 10 of recombinant human Pim-2 solution (4 ng Pim-2 dissolved in dilution buffer (20 mM MOPS pH 7.0; EDTA 1 mM; 5% Glycerol; 0.01% Brij 35; […]; […] 2-mercaptoethanol; 1 mg/ml BSA)) and 8 ul of water. Reactions were initiated by the addition of 10 ul of ATP Solution (49% (15 mM MgCl2; 75 uM ATP) 1% ([γ-33P]ATP: Stock 1 mCi/100 μl; 3000 Ci/mmol (Perkin Elmer)) and 10 ul of substrate peptide solution (RSRSSYPAGT, dissolved in water at a concentration of 1 mM), Reactions were maintained for […] at 30° C. The reactions were quenched with 100 ul of 0.75% phosphoric acid, then transferred to and filtered through a Phosphocellulose filter plate (Millipore, MSPH-N6B-50). After washing each well 4 times with 0.75% phosphoric acid, scintillation fluid (20 μL) was added to each well and the residual radioactivity was measured using a Wallac luminescence counter.

T1 sequence (P68400 whole entry): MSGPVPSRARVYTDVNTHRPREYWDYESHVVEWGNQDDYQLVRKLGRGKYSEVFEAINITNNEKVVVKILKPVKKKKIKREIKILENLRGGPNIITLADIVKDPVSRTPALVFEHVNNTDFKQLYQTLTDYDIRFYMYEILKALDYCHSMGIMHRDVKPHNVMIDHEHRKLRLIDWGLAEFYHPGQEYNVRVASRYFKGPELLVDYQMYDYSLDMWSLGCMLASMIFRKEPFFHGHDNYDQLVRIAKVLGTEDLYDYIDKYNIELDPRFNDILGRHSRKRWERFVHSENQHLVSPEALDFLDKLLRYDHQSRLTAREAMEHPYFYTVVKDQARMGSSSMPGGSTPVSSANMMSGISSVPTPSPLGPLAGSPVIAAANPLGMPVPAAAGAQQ
T1 sequence (P67870 whole entry partner): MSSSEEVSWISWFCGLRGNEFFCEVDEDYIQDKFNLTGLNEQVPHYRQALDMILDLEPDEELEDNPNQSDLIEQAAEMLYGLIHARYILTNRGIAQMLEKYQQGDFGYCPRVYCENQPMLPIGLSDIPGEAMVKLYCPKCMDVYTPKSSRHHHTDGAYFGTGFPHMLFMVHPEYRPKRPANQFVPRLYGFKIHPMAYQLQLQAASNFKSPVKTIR

With `C[C@H](Nc1cc(NC2CC2)n2ncc(/C=C3\CC(=O)NC3=O)c2n1)c1ccccc1` [Example A12] the pIC50 (recombinant human CK2) was greater than 6.00, the pIC50 (MDAMB453; Homo sapiens, MDA-MB-453, MDAMB453 cells) was 5.22 and the pIC50 ([1]; Homo sapiens, BXPC-3) was 4.95. For the same compound, the inhibition at 2.5 µM (recombinant human Pim-2; read-out: PIM2: % inh 2.5 uM) was 6.72%.
`O=C(O)CCCC(=O)OCN1C(=O)C/C(=C\c2cnn3c(NC4CC4)cc(Nc4cc(Cl)ccc4F)nc23)C1=O` [Example P2] gave a pIC50 (recombinant human CK2) greater than 7.00, a pIC50 (MDAMB453; MDAMB453 cells) of less than 4.52 and a pIC50 [1] of less than 4.52. For the same compound, the “PIM2: % inh 2.5 uM” value (recombinant human Pim-2) was 73.771%.
`CC(N)C(=O)OCN1C(=O)C/C(=C\c2cnn3c(NC4CC4)cc(Nc4cc(Cl)ccc4F)nc23)C1=O` (stereo not drawn) [Example P7, (E)-(3-((5-(5-chloro-2-fluorophenylamino)-7-(cyclopropylamino)pyrazolo[1,5-a]pyrimidin-3-yl)methylene)-2,5-dioxopyrrolidin-1-yl)methy 2-aminopropanoate] gave a pIC50 (recombinant human CK2) greater than 6.00, a pIC50 (MDAMB453; MDAMB453 cells) of 4.98 and a pIC50 [1] of 4.91. The “PIM2: % inh 2.5 uM” value (recombinant human Pim-2) was 49.047%.

Source: patent US20110071115A1, “PHARMACEUTICALLY USEFUL HETEROCYCLE-SUBSTITUTED LACTAMS” (CYLENE PHARMACEUTICALS, INC., priority 2009, published 2011)
